Several values for one entry are separate records, joined by “and”; a condition that tells them apart may be missing. Equal entries are not always repeated.
Experiments:
cucumber downy mildew = assay: Field efficacy trial of emulsifier concentrate 1, cucumber downy mildew; assay type: in vivo
Experimental: To a beaker (1000 mL), 50 g (100% basis) of the compound of Formula (I), 150 g of DMF, and 50 g of acetone were added and stirred for dissolution. To the solution, 25 g of pesticide emulsifier No. 500 and 50 g of Tween 80, 20 g of epoxidized soybean oil, and […] of toluene were added. Thus, the emulsifier concentrate 1 having 5 wt. % of the compound of Formula (I) was obtained and further packed.
On the basis of indoor activity evaluation, field efficacy trials of the compound of Formula (I) on cucumber downy mildew, cucumber powdery mildew, and melon powdery mildew were conducted.

[1] = test system: Cucumber sclerotinia rot (strain HGJH); assay: In vivo micro-screening assay
Experimental: In Vivo Micro-Screening Assay
To further study the fungicidal spectrum of the compound of Formula (I), indoor in vivo micro-screening assay were carried out on cucumber gray mold, cucumber scab, cucumber sclerotinia rot, cucumber brown spot, pepper phytophthora blight, and rice sheath blight.
Cucumber scab strain: HX; cucumber brown spot strain: SDHGHB060509; cucumber sclerotinia rot strain: HGJH; pepper phytophthora blight strain: NSGP; and rice sheath blight strain: WK-1.
Medicament to be tested and medicament of control groups were prepared as needed in a sunny morning. Cucumber gray mold, cucumber scab, cucumber brown spot, cucumber sclerotinia rot, and rice sheath blight were medicated by spray, and after air dry, pathogens of cucumber scab and of cucumber brown spot were inoculated through spraying spore suspension respectively, pathogens of cucumber gray mold, of cucumber sclerotinia rot, and of rice sheath blight were inoculated through lawn foliage. Pepper phytophthora blight was medicated and inoculated by root-irrigation. Subsequently, all seedlings were cultured in wet environment.
After the disease of control groups were serious, spot area, disease index, and the diseased seedling rate were investigated to calculate the efficacy. Cucumber scab, cucumber brown spot, and pepper phytophthora blight were investigated by grading method. The spot extension area of cucumber gray mold and of rice sheath blight was investigated. The diseased seedling rate of cucumber sclerotinia rot was investigated. Disease index=Σ(amount of infected diseased leaves in a grade×relative value of the grade)×100/(total amount of leaves×9); Diseased seedling rate (%)=(total amount of seedlings−amount of diseased seedlings)/total amount of seedlings×100% Prevention and treatment effect (%)=(disease of control group−disease of experiment group)/disease of control group×100%

[2] = test system: Cucumber mosaic virusstrain banana; assay: In vitro inhibition, pathogens from tropical plants; assay type: cell-based
Experimental: (§1) 5 wt % formulation of the active compound of Formula (I) was prepared into a solution (300 mg/L). To a sterilized Erlenmeyer flask, 2 mL of the solution and 18 mL of PDA culture medium (50° C.) were added. The mixture was shaken uniformly and dumped into two dishes whose diameter was 9 cm to yield two toxic PDA culture mediums having a concentration of 30 mg/L. Various cultured pathogens were punched at the edge of colony by a puncher having a diameter of 5 mm respectively, and the obtained pieces were transferred to the center of the toxic PDA culture medium by an inoculating needle and cultured in an incubator at 25° C. Repeat the above steps. According to the growth status of CK colony, the colony diameter of pathogens was measured by crossing method with a caliper and thereby a corrected inhibition percentage was calculated.
(§2) For each colony, diameter was measured twice by crossing method and the average was practicable. The colony growth inhibition rate was calculated as follows: Colony growth inhibition rate %=(diameter of CK colony−diameter of target colony)×100/diameter of CK colony
(§3) Following the above method, as targets 17 pathogens originated from tropical plants were tested. The pathogens were Rhizopus sp., Aspergillus, Colletotrichum gloeosporioides Penz, Banana Fusarium wilt, Colletouichum coccodes, Hughas, B. heveas, Cucumber mosaic virusstrain banana, Banana Sigatoka Leaf Spot Disease, Colletotrichum gloeosporioides, Colletotrichum musae (Berk & Curt) Arx, Botryodiplodia theobromae, Cladosporium cucumerinum Ellis et Arthur, Periconia hevenae, Colletotrichum gloeosporioides, B. cinerea, Diplodia natalensis, and Curvularia.

Diplodia natalensis = assay: as above; assay type: cell-based
Experimental: as §1, §2, §3

[3] = test system: Colletotrichum gloeosporioides (first entry, r49); assay: as above; assay type: cell-based
Experimental: as §1, §2, §3

B. heveas = assay: as above; assay type: cell-based
Experimental: as §1, §2, §3

Aspergillus = assay: as above; assay type: cell-based
Experimental: as §1, §2, §3

Periconia hevenae = assay: as above; assay type: cell-based
Experimental: as §1, §2, §3

[4] = test system: Colletotrichum gloeosporioides Penz; assay: as above; assay type: cell-based
Experimental: as §1, §2, §3

Curvularia = assay: as above; assay type: cell-based
Experimental: as §1, §2, §3

[5] = test system: Colletotrichum musae (Berk & Curt) Arx; assay: as above; assay type: cell-based
Experimental: as §1, §2, §3

[6] = test system: Colletotrichum gloeosporioides (second entry, r74); assay: as above; assay type: cell-based
Experimental: as §1, §2, §3

[7] = 25 mg/L, 5th day after third administration, Average
[8] = 25 mg/L, 5th day after third administration, No. 1-3
[9] = 25 mg/L, 9th day after third administration, Average
[10] = 25 mg/L, 9th day after third administration, No. 1-3
[11] = 25 mg/L, 12th day after second administration, Average
[12] = 25 mg/L, 12th day after second administration, No. 1-3
[13] = 50 mg/L, 5th day after third administration, Average
[14] = 50 mg/L, 5th day after third administration, No. 1-3
[15] = 50 mg/L, 9th day after third administration, Average
[16] = 50 mg/L, 9th day after third administration, No. 1-3
[17] = 50 mg/L, 12th day after second administration, Average
[18] = 50 mg/L, 12th day after second administration, No. 1-3
[19] = 100 mg/L, 5th day after third administration, Average
[20] = 100 mg/L, 5th day after third administration, No. 1-3
[21] = 100 mg/L, 9th day after third administration, Average
[22] = 100 mg/L, 9th day after third administration, No. 1-3
[23] = 100 mg/L, 12th day after second administration, Average
[24] = 0.1 mg/L, read-out: Inhibition rate (%)
[25] = 1 mg/L, read-out: Inhibition rate (%)
[26] = 5 mg/L, read-out: Inhibition rate (%)
[27] = 10 mg/L, read-out: Inhibition rate (%)
[28] = 15 mg/L, read-out: Inhibition rate (%)
[29] = 20 mg/L, read-out: Inhibition rate (%)
[30] = 25 mg/L, read-out: Inhibition rate (%)
[31] = 50 mg/L, read-out: Inhibition rate (%)

CO/C=C(/C(=O)OC)c1ccccc1CSc1nc2cc(OC)ccc2s1 [Compound of Formula (I), (E)-methyl 3-methoxy-2-(2-((5-methoxy-benzothiazol-2-ylthio)methyl)phenyl)acrylate]
Disease index (cucumber downy mildew; [7]): 4.75
Efficacy (%) (cucumber downy mildew; [7]): 58.99%
Disease index (cucumber downy mildew; [8]): 4.86 and 4.51
Efficacy (%) (cucumber downy mildew; [8]): 57.99% and 60.99%
Disease index (cucumber downy mildew; [9]): 11.50
Efficacy (%) (cucumber downy mildew; [9]): 68.89%
Disease index (cucumber downy mildew; [10]): 12.04 and 10.42
Efficacy (%) (cucumber downy mildew; [10]): 67.43% and 71.82%
Disease index (cucumber downy mildew; [11]): 1.85
Efficacy (%) (cucumber downy mildew; [11]): 69.24%
Disease index (cucumber downy mildew; [12]): 1.74 and 2.08
Efficacy (%) (cucumber downy mildew; [12]): 71.16% and 65.39%
Disease index (cucumber downy mildew; [13]): 3.94
Efficacy (%) (cucumber downy mildew; [13]): 65.99%
Disease index (cucumber downy mildew; [14]): 3.47 and 4.51 and 3.82
Efficacy (%) (cucumber downy mildew; [14]): 69.99% and 60.99% and 66.99%
Disease index (cucumber downy mildew; [15]): 8.72
Efficacy (%) (cucumber downy mildew; [15]): 76.41%
Disease index (cucumber downy mildew; [16]): 10.65 and 7.18 and 8.33
Efficacy (%) (cucumber downy mildew; [16]): 71.19% and 80.58% and 77.45%
Disease index (cucumber downy mildew; [17]): 1.39
Efficacy (%) (cucumber downy mildew; [17]): 76.93%
Disease index (cucumber downy mildew; [18]): 1.04 and 1.74 and 1.39
Efficacy (%) (cucumber downy mildew; [18]): 82.70% and 71.16% and 76.93%
Disease index (cucumber downy mildew; [19]): 2.55
Efficacy (%) (cucumber downy mildew; [19]): 77.99%
Disease index (cucumber downy mildew; [20]): 2.08 and 2.43 and 3.13
Efficacy (%) (cucumber downy mildew; [20]): 81.99% and 78.99% and 72.99%
Disease index (cucumber downy mildew; [21]): 7.10
Efficacy (%) (cucumber downy mildew; [21]): 80.79%
Disease index (cucumber downy mildew; [22]): 8.10 and 7.18 and 6.02
Efficacy (%) (cucumber downy mildew; [22]): 78.08% and 80.58% and 83.72%
Disease index (cucumber downy mildew; [23]): 1.02
Efficacy (%) (cucumber downy mildew; [23]): 83.04%
Efficacy (%) (cucumber downy mildew; 100 mg/L, 12th day after second administration, No. 1-3): 83.71% and 76.93% and 88.46%
Efficacy (%) ([1]; 100 mg/L): 16.84%
Spot area (mm^2) ([1]; 100 mg/L): 70.08 mm^2
Efficacy (%) ([1]; 500 mg/L): 58.88%
Spot area (mm^2) ([1]; 500 mg/L): 34.65 mm^2
EC50 [2]: 1.92 µg/mL
inhibition at 0.1 µg/mL [2, 24]: 9.84%
inhibition at 1 µg/mL [2, 25]: 40.2%
inhibition at 5 µg/mL [2, 26]: 62.3%
inhibition at 10 µg/mL [2, 27]: 76.6%
inhibition at 15 µg/mL [2, 28]: 84.8%
EC50 (Diplodia natalensis): 1.7 µg/mL
inhibition at 0.1 µg/mL (Diplodia natalensis; [24]): 20.7%
inhibition at 1 µg/mL (Diplodia natalensis; [25]): 40.2%
inhibition at 5 µg/mL (Diplodia natalensis; [26]): 60.7%
inhibition at 10 µg/mL (Diplodia natalensis; [27]): 73.7%
inhibition at 20 µg/mL (Diplodia natalensis; [29]): 82.3%
EC50 [3]: 1.97 µg/mL
inhibition at 0.1 µg/mL [3, 24]: 18.2%
inhibition at 1 µg/mL [3, 25]: 42.4%
inhibition at 5 µg/mL [3, 26]: 55.9%
inhibition at 10 µg/mL [3, 27]: 69.4%
inhibition at 20 µg/mL [3, 29]: 83.2%
EC50 (B. heveas): 1.99 µg/mL
inhibition at 0.1 µg/mL (B. heveas; [24]): 9.09%
inhibition at 1 µg/mL (B. heveas; [25]): 43.9%
inhibition at 5 µg/mL (B. heveas; [26]): 61.4%
inhibition at 10 µg/mL (B. heveas; [27]): 70.5%
inhibition at 15 µg/mL (B. heveas; [28]): 81.4%
EC50 (Aspergillus): 5.03 µg/mL
inhibition at 0.1 µg/mL (Aspergillus; [24]): 10.6%
inhibition at 1 µg/mL (Aspergillus; [25]): 27.4%
inhibition at 5 µg/mL (Aspergillus; [26]): 47.8%
inhibition at 10 µg/mL (Aspergillus; [27]): 58.4%
inhibition at 25 µg/mL (Aspergillus; [30]): 71.4%
inhibition at 50 µg/mL (Aspergillus; [31]): 86.1%
EC50 (Periconia hevenae): 0.378 µg/mL
inhibition at 0.1 µg/mL (Periconia hevenae; [24]): 33.2%
inhibition at 1 µg/mL (Periconia hevenae; [25]): 66.4%
inhibition at 5 µg/mL (Periconia hevenae; [26]): 74.2%
inhibition at 10 µg/mL (Periconia hevenae; [27]): 77.6%
inhibition at 15 µg/mL (Periconia hevenae; [28]): 81.7%
EC50 [4]: 4.63 µg/mL
inhibition at 0.1 µg/mL [4, 24]: 16.7%
inhibition at 1 µg/mL [4, 25]: 31.1%
inhibition at 5 µg/mL [4, 26]: 50.2%
inhibition at 10 µg/mL [4, 27]: 54.9%
inhibition at 25 µg/mL [4, 30]: 69.3%
inhibition at 50 µg/mL [4, 31]: 80.9%
EC50 (Curvularia): 0.505 µg/mL
inhibition at 0.1 µg/mL (Curvularia; [24]): 28.8%
inhibition at 1 µg/mL (Curvularia; [25]): 63.5%
inhibition at 5 µg/mL (Curvularia; [26]): 75.9%
inhibition at 10 µg/mL (Curvularia; [27]): 76.6%
inhibition at 15 µg/mL (Curvularia; [28]): 80.6%
EC50 [5]: 1.66 µg/mL
inhibition at 0.1 µg/mL [5, 24]: 19.1%
inhibition at 1 µg/mL [5, 25]: 37.2%
inhibition at 5 µg/mL [5, 26]: 64.5%
inhibition at 10 µg/mL [5, 27]: 78.7%
inhibition at 20 µg/mL [5, 29]: 85.8%
EC50 [6]: 6.92 µg/mL
inhibition at 0.1 µg/mL [6, 24]: 7.12%
inhibition at 1 µg/mL [6, 25]: 19.3%
inhibition at 5 µg/mL [6, 26]: 33.8%
inhibition at 10 µg/mL [6, 27]: 55.2%
inhibition at 20 µg/mL [6, 29]: 87.2%

Source: patent US9422254B2, “Methoxyacrylate-based fungicide and methods for preparing and using the same” (priority 2008, dated 2016)
